Test results as given in patent publication US12439919B2, “Active compound combinations” (priority 2019, dated 2025).

What was measured:
Venturia inaequalis = experiment: In vivo preventive test on Venturia test (apples) (Example G2); conditions: 10 days after inoculation
Text: (§1) A synergistic effect of fungicides is always present when the fungicidal activity of the active compound combinations exceeds the total of the activities of the active compounds when applied individually. The expected activity for a given combination of two active compounds can be calculated as follows (cf. Colby, S. R., “Calculating Synergistic and Antagonistic Responses of Herbicide Combinations,” Weeds 1967, 15, 20-22):
(§2) If • X is the efficacy when active compound A is applied at an application rate of m ppm (or g/ha), • Y is the efficacy when active compound B is applied at an application rate of n ppm (or g/ha), • Z is the efficacy when active compound […] ppm (or g/ha), • E1 is the efficacy when the active compounds A and B are applied at application rates of m and n ppm (or g/ha), respectively, and • E2 is the efficacy when the active compounds A, B and C are applied at application rates of m, n and r ppm (or g/ha), respectively, and then
(§3) The degree of efficacy, expressed in % is denoted. 0% means an efficacy which corresponds to that of the control while an efficacy of 100% means that no disease is observed.
(§4) If the actual fungicidal activity exceeds the calculated value, then the activity of the combination is superadditive, i.e., a synergistic effect exists. In this case, the efficacy which was actually observed must be greater than the value for the expected efficacy (E) calculated from the abovementioned formula.
(§5) Solvent: 24.5 parts by weight of acetone • 24.5 parts by weight of dimethyl sulfoxide
(§6) Emulsifier: 1 part by weight of alkylaryl polyglycol ether
(§7) To produce a suitable preparation of active compound, 1 part by weight of active compound is mixed with the stated amounts of solvent and emulsifier, and the concentrate is diluted with water to the desired concentration.
(§8) To test for preventive activity, young plants are sprayed with the preparation of active compound at the stated rate of application. After the spray coating has dried on, the plants are inoculated with an aqueous conidia suspension of the causal agent of apple scab (Venturia inaequalis) and then remain for 1 day in an incubation cabinet at approximately 20° C. and a relative atmospheric humidity of 100%.
The plants are then placed in a greenhouse at approximately 21° C. and a relative atmospheric humidity of approximately 90%.
The test is evaluated 10 days after the inoculation. 0% means an efficacy which corresponds to that of the untreated control, while an efficacy of 100% means that no disease is observed.

Alternaria solani = experiment: In vivo preventive test on Alternaria test (tomatoes) (Example G1); conditions: 3 days after inoculation
Text: as §1, §2, §3, §4, §5, §6, §7
as §8, with “spore” for “conidia”, “Alternaria solani. The plants are” for “the causal agent of apple scab (Venturia inaequalis) and”, “placed” for “remain for 1 day”
The test is evaluated 3 days after the inoculation. 0% means an efficacy which corresponds to that of the untreated control while an efficacy of 100% means that no disease is observed.

lentils = experiment: Field trials in lentils Western Canada 2018, yield (Example H); format: in vivo
Experimental: Field trials in lentils were conducted in Western Canada in spring/summer 2018.
(§9) Fertilization and herbicide applications were carried out according to the local agricultural practice.
(§10) Fluopyram was added to Delaro in a final concentration of 50, 75 and 90 g/ha.
The following products as shown in Table 18 were sprayed using a Backpack hand boom sprayer with air induction flat fan spray nozzles applying 93.5 L/Ha spray solution at crop BBCH—growth stage 62-63.

field peas = experiment: Field trials in field peas Western Canada 2018, yield (Example I); format: in vivo
Experimental: Field trials in field peas were conducted in Western Canada in spring/summer 2018.
as §9, §10
The following products as shown in Table 20 were sprayed using a Backpack hand boom sprayer with flat fan spray nozzles applying 93.5 L/ha spray solution at crop BBCH growth stage 63.

O=C(NCCc1ncc(C(F)(F)F)cc1Cl)c1ccccc1C(F)(F)F [Fluopyram, N-[2-[3-chloro-5-(trifluoromethyl)-2-pyridinyl]ethyl]-2-(trifluoromethyl)benzamide]
Efficacy % (Venturia inaequalis; fluopyram 0.75 ppm): 0%
Efficacy % (Venturia inaequalis; fluopyram 1.5 ppm): 0%
Efficacy % (Venturia inaequalis; fluopyram 3 ppm): 5%
Efficacy % (Alternaria solani; fluopyram 0.75 ppm): 5%
Efficacy % (Alternaria solani; fluopyram 1.5 ppm): 8%
Efficacy % (Alternaria solani; fluopyram 3 ppm): 10%
Yield [% of Priaxor treatment-Priaxor is 100%] (lentils; BBCH 62-63, Fluopyram 50 g/ha): 93.8 % of Priaxor treatment
Yield [% of Priaxor treatment-Priaxor is 100%] (lentils; BBCH 62-63, Fluopyram 75 g/ha): 96.3 % of Priaxor treatment
Yield [% of Priaxor treatment-Priaxor is 100%] (field peas; BBCH 63, Fluopyram 50 g/ha): 98.9 % of Priaxor treatment
Yield [% of Priaxor treatment-Priaxor is 100%] (field peas; BBCH 63, Fluopyram 75 g/ha): 99.7 % of Priaxor treatment

CO/N=C(/C(=O)OC)c1ccccc1CO/N=C(\C)c1cccc(C(F)(F)F)c1 [Trifloxystrobin, methylalpha-(methoxyimino)-2-[[[[1-[3-(trifluoromethyl)phenyl]ethylidene]amino]oxy]methyl]-benzeneacetate]
Efficacy % (Venturia inaequalis; trifloxystrobin 0.9 ppm): 40%
Efficacy % (Venturia inaequalis; trifloxystrobin 1.8 ppm): 65%
Efficacy % (Venturia inaequalis; trifloxystrobin 3.6 ppm): 89%
Efficacy % (Alternaria solani; trifloxystrobin 0.9 ppm): 23%
Efficacy % (Alternaria solani; trifloxystrobin 1.8 ppm): 31%
Efficacy % (Alternaria solani; trifloxystrobin 3.6 ppm): 41%

OC(Cc1ccccc1Cl)(Cn1nc[nH]c1=S)C1(Cl)CC1 (stereo not shown) [Prothioconazole, 2-[2-(1-chlorocyclopropyl)-3-(2-chlorophenyl)-2-hydroxypropyl]-1,2-dihydro-3H-1,2,4-triazole-3-thione]
Efficacy % (Venturia inaequalis; prothioconazole 1.05 ppm): 0%
Efficacy % (Venturia inaequalis; prothioconazole 2.1 ppm): 17%
Efficacy % (Venturia inaequalis; prothioconazole 4.2 ppm): 41%
Efficacy % (Alternaria solani; prothioconazole 1.05 ppm): 0%
Efficacy % (Alternaria solani; prothioconazole 2.1 ppm): 0%
Efficacy % (Alternaria solani; prothioconazole 4.2 ppm): 10%
